# Assay results taken from US12448358B2, “Inhibitors of protein arginine deiminase 1 and methods of preparation and use thereof” (University of Massachusetts, priority 2019, dated 2025).
# Biological target: T1, PAD1 (Homo sapiens, UniProt Q9ULC6)
# T1 construct: made in house
# T1 sequence (Q9ULC6 1-663): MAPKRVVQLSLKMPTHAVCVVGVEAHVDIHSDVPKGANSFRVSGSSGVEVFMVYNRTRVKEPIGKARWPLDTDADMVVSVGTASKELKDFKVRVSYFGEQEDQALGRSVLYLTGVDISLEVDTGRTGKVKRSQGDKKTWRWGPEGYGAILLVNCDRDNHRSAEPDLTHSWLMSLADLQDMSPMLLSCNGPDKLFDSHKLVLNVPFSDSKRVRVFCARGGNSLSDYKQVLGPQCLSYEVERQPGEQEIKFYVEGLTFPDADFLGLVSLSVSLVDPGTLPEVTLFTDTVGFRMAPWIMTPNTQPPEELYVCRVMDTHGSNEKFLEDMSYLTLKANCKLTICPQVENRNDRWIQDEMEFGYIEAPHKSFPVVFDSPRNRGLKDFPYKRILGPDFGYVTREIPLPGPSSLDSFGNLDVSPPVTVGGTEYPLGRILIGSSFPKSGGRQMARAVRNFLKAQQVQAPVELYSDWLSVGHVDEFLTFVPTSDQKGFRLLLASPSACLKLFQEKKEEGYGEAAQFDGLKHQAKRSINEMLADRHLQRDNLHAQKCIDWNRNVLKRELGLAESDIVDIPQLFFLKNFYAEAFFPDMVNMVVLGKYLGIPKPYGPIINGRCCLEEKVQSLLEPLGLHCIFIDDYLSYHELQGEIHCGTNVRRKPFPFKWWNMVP
# Assay: Streptavidin enrichment and ReDiMe proteomics of proteins labelled by probe in HEK293TPAD1 cells (PAD1)
# Type: cell-based
# Conditions: 5 μM probe versus control
# Experimental: Enrichment of Proteins Labelled by 21 in HEK293TPAD1 Cells on Streptavidin-agarose. HEK293TPAD1 cells were cultured in 175 cm^2 T-175 flasks in DMEM (supplemented with 10% heat-inactivated fetal bovine serum, 100 units/mL penicillin, 100 μg/mL streptomycin and 0.15 mg/mL hygromycin B). Upon reaching ˜90% confluence, cells were treated with 1 mM CaCl2, 5 μM ionomycin and 5 μM of 21 (or equal volume of DMSO for control) in serum-free DMEM for 3 h. Then the cells were scraped, harvested by centrifugation at 3,000 rpm for 5 min and resuspended in 1×PBS. Cell lysis was performed by probe sonication and soluble proteins in the lysates were quantified by DC Assay (Bio-Rad). Endogenous biotinylated proteins were precleared by incubating the lysates with streptavidin-agarose beads (25 μL for 1 mg of total protein in the lysate) at room temperature for 1 h with constant mixing on an end-over-end shaker. The mixture was centrifuged (1200 g, 3 minute) to separate the beads and the supernatant (pre-cleared lysate). Pre-cleared lysates (2 mg/mL, 500 μL final) were clicked with Biotin-N3 (100 μM), TCEP (1.5 mM), TBTA (0.3 mM) and freshly prepared CuSO4 (4 mM), and the tubes were gently tumbled at room temperature for 2 h. The precipitated proteins were collected by centrifugation at 5,000 rpm for 10 min. […]
compound,measurement,value
C#Cc1c(I)cc(C(=O)N[C@@H](CCCNC(=N)CF)c2nc3ccccc3[nH]2)c(O)c1I [Compound 21],Enrichment ratio (heavy/light) of PAD1,~20
